# Data from patent US9926306B2, “Inhibition of MCL-1 and/or BFL-1/A1” (Dana-Farber Cancer Institute, Inc., priority 2012, dated 2018).
# Entries after “also recorded” stand apart in the source; their conditions may differ.
# Legend:
# [1] = target: BFL-1/A1ΔC (Homo sapiens (Human), UniProt Q16548); test: Competitive fluorescence polarization binding assay, BFL-1/A1 (FITC-BID BH3); conditions: Table A
# Text: FIG. 19A and FIG. 19B are graphs that show potent targeting of the anti-apoptotic protein BFL-1/A1 by MIM1. […] Thus, the complex between FITC-BID BH3 and BFL-1/A1ΔC was employed in a competitive FP assay to monitor the capacity of MIM1 to target BFL-1/A1ΔC.
# [2] = target: MCL-1ΔNΔC (Homo sapiens (Human), UniProt Q07820); test: Competitive fluorescence polarization binding assay, MCL-1; conditions: Table A
# Chain of MCL-1ΔNΔC (Q07820 172-327, stated change not applied): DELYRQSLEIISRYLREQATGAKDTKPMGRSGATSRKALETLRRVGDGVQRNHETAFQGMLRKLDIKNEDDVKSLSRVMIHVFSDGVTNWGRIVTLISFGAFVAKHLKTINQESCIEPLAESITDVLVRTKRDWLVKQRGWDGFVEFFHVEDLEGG
# Experimental: Here, we deployed MCL-1 SAHBA as a high fidelity screening tool to determine if its potency and specificity-of-action could be harnessed for small molecule discovery. […] A compilation of 71,296 small molecules was screened for the capacity to displace FITC-MCL-1 SAHBA from recombinant MCL-1ΔNΔC (aa 172-327) (FIG. 4).
# Fluorescence polarization assays (FPA) were performed as previously described^38,39. […] Fluorescence polarization was measured at equilibrium and IC50 values calculated by nonlinear regression analysis of competitive binding curves using Prism software (Graphpad).
# [3] = tested on: wild-type or Bax−/−Bak−/− MEFs; test: Cell viability (CellTiter-Glo), MEFs; type: cell-based, mouse; conditions: non-malignant fibroblasts, 24 h
# Experimental: (§1) p185^+Arf^−/− and MCL-1 or BCL-XL-rescued p185^+Arf^−/−Mcl^−/− cells were maintained in RPMI 1640 (ATCC) supplemented with 10% (v/v) FBS, 100 U/mL penicillin, 100 μg/mL streptomycin, 0.1 mM MEM non-essential amino acids and 50 μM β-mercaptoethanol. Mouse embryonic fibroblasts (MEFs) cells were maintained in DMEM high glucose (Invitrogen) supplemented with 10% (v/v) FBS, 100 U/mL penicillin, 100 μg/mL streptomycin, 2 mM L-glutamine, 50 mM HEPES, 0.1 mM MEM non-essential amino acids and 50 μM β-mercaptoethanol. […] Cell viability was assayed at 24 h by addition of CellTiter-Glo reagent according to the manufacturer's protocol (Promega), and luminescence was measured using a SpectraMax M5 microplate reader (Molecular Devices). Caspase 3/7 activation was assayed at 8 h by addition of Caspase-Glo 3/7 reagent according to manufacturer's protocol (Promega), and luminescence measured using a SpectraMax M5 microplate reader. Viability and caspase assays were performed in duplicate, repeated at least twice with independent cell cultures, and the data normalized to vehicle-treated control wells.
# [4] = tested on: wild-type or Bax−/−Bak−/− MEFs; test: Caspase 3/7 activation (Caspase-Glo), MEFs; type: cell-based, mouse; conditions: 8 h
# Experimental: as §1
# [5] = tested on: parental p185+Arf−/− CML cells; test: Cell viability and CalcuSyn synergy, parental leukemia cells; type: cell-based, murine; conditions: Mus musculus; parental cells expressing both MCL-1 and BCL-XL; read-out: IC50, cytotoxicity
# Experimental: as §1
# [6] = tested on: MCL-1-rescued p185+Arf−/−Mcl-1−/− CML cells; test: Cell viability (CellTiter-Glo), MCL-1-dependent leukemia cells; type: cell-based, murine; conditions: Mus musculus; MCL-1-dependent cells, 24 h
# Text: A challenges in developing and applying molecular antagonists for BCL-2 family anti-apoptotic proteins is the variable expression of multiple homologues. That is, a cancer cell will only be susceptible to a selective anti-apoptotic inhibitor if the cell is especially dependent on that particular survival protein. […] To test MIM1's activity and specificity in cancer cells, we employed murine p185^+Arf^−/−Mcl-1^−/− chronic myelogenous leukemia (CML) cells that are unable to survive unless reconstituted with MCL-1, reflecting a stringent system for assessing MCL-1 dependence.
# p185^+Arf^−/− and MCL-1 or BCL-XL-rescued p185^+Arf^−/−Mcl^−/− cells were maintained in RPMI 1640 (ATCC) supplemented with 10% (v/v) FBS, 100 U/mL penicillin, 100 μg/mL streptomycin, 0.1 mM MEM non-essential amino acids and 50 μM β-mercaptoethanol. […] Cell viability was assayed at 24 h by addition of CellTiter-Glo reagent according to the manufacturer's protocol (Promega), and luminescence was measured using a SpectraMax M5 microplate reader (Molecular Devices). Caspase 3/7 activation was assayed at 8 h by addition of Caspase-Glo 3/7 reagent according to manufacturer's protocol (Promega), and luminescence measured using a SpectraMax M5 microplate reader. […]
# [7] = target: BCL-XLΔC (Homo sapiens (Human), UniProt Q07817); test: Competitive fluorescence polarization binding assay, BCL-XL; conditions: tracer FITC-BID BH3; read-out: IC50, displacement of FITC-BID BH3 from BCL-XLΔC
# Chain of BCL-XLΔC (Q07817 1-212): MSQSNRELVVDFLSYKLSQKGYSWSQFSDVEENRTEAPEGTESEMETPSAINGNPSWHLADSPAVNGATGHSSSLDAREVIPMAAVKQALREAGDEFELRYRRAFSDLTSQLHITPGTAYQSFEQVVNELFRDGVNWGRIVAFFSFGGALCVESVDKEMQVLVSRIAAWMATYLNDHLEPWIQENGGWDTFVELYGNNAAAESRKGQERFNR
# Chain of BFL-1/A1ΔC (Q16548 1-153): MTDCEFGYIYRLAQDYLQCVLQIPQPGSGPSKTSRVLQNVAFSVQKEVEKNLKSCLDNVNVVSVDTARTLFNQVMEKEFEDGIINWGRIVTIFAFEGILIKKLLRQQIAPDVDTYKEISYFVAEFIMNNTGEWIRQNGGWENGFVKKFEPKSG
structure (smiles),measurement,setting,value
Oc1ccc(/C=N/NC(=S)NC2CCCCC2)c(O)c1O [178-72],IC50,[1],5100 nM
same,IC50,[2],16000 nM
CCc1cs/c(=N\C2CCCCC2)n1/N=C/c1ccc(O)c(O)c1O [178-82],IC50,[1],1200 nM
same,IC50,[2],2100 nM
Oc1ccc(/C=N/n2c(C3CC3)cs/c2=N\C2CCCCC2)c(O)c1O [178-83],IC50,[1],785 nM
same,IC50,[2],910 nM
COC(=O)Cc1cs/c(=N\C2CCCCC2)n1/N=C/c1ccc(O)c(O)c1O [178-97],IC50,[1],1000 nM
same,IC50,[2],9500 nM
Cc1s/c(=N\C2CCCCC2)n(/N=C/c2ccc(O)c(O)c2O)c1C [183-8],IC50,[1],712 nM
same,IC50,[2],1500 nM
Cc1cs/c(=N\C2CCCC2)n1/N=C/c1ccc(O)c(O)c1O [183-19],IC50,[1],631 nM
same,IC50,[2],3100 nM
Cc1cs/c(=N\c2ccccc2)n1/N=C/c1ccc(O)c(O)c1O [183-20],IC50,[1],264 nM
Oc1ccc(/C=N/n2c(C3CC3)cs/c2=N\c2ccccc2)c(O)c1O [183-21],IC50,[1],719 nM
same,IC50,[2],4300 nM
Oc1ccc(/C=N/n2c(C3CC3)cs/c2=N\C2CCCC2)c(O)c1O [183-22],IC50,[1],601 nM
same,IC50,[2],2400 nM
CCOc1ccccc1/N=c1\scc(C)n1/N=C/c1ccc(O)c(O)c1O [183-24],IC50,[1],2500 nM
same,IC50,[2],16000 nM
Cc1cs/c(=N\C2CCCCC2)n1/N=C/c1ccc(O)c(O)c1 [183-38],IC50,[1],282 nM
same,IC50,[2],12000 nM
CC(C)(C)c1cs/c(=N\C2CCCCC2)n1/N=C/c1ccc(O)c(O)c1O [183-44],IC50,[1],914 nM
same,IC50,[2],540 nM
Oc1ccc(/C=N/N2/C(=N/C3CCCCC3)SCC2(O)C(F)(F)F)c(O)c1O (stereo not drawn) [183-51],IC50,[1],1200 nM
same,IC50,[2],2900 nM
CC(C)(C)c1cs/c(=N\C2CCCCC2)n1/N=C/c1ccc(O)c(O)c1 [183-65],IC50,[1],2100 nM
same,IC50,[2],17700 nM
CC(C)(C)Cc1cs/c(=N\C2CCCCC2)n1/N=C/c1ccc(O)c(O)c1O [183-70],IC50,[1],1500 nM
same,IC50,[2],1970 nM
Oc1ccc(/C=N/n2c(-c3cccs3)cs/c2=N\C2CCCCC2)c(O)c1O [183-76],IC50,[1],388 nM
same,IC50,[2],11000 nM
Oc1ccc(/C=N/n2c3c(s/c2=N\C2CCCCC2)CCCC3)c(O)c1O [183-81],IC50,[1],1300 nM
same,IC50,[2],4500 nM
Cc1cs/c(=N\C2CC3CCC2C3)n1/N=C/c1cc(O)c(O)cc1O (stereo not drawn) [183-82],IC50,[1],169 nM
same,IC50,[2],1000 nM
Cc1cs/c(=N\C2CCCCC2)n1/N=C/c1cc(O)c(O)c(O)c1 [183-84],IC50,[1],316 nM
same,IC50,[2],13000 nM
COc1cc(/C=N/n2c(C)cs/c2=N\C2CCCCC2)cc(OC)c1OC [183-85],IC50,[2],7600 nM
CC(C)(C)c1cs/c(=N\C2CCCCC2)n1/N=C/c1cc(O)c(O)cc1O [183-87],IC50,[1],42 nM
same,IC50,[2],151 nM
CC(C)(C)c1cs/c(=N\C2CCCCC2)n1/N=C/c1cc(O)c(O)c(O)c1 [183-88],IC50,[1],759 nM
same,IC50,[2],1160 nM
Cc1s/c(=N\C2CCCCC2)n(/N=C/c2cc(O)c(O)cc2O)c1C [183-89],IC50,[1],581 nM
same,IC50,[2],780 nM
CCOC(=O)c1s/c(=N\C2CCCCC2)n(/N=C/c2ccc(O)c(O)c2O)c1C [183-91],IC50,[1],381 nM
same,IC50,[2],11800 nM
Cc1cs/c(=N\CC2CCCCC2)n1/N=C/c1ccc(O)c(O)c1O [187-5],IC50,[1],1100 nM
same,IC50,[2],2700 nM
Oc1cc(O)c(/C=N/n2c(C3CC3)cs/c2=N\C2CCCCC2)cc1O [187-7],IC50,[1],26 nM
same,IC50,[2],123 nM
Cc1cs/c(=N\C2CCCCC2)n1/N=C/c1cc(O)c(O)cc1F [187-8],IC50,[1],8400 nM
CC(C)(C)c1cs/c(=N\C2CCCCC2)n1/N=C/c1cc(O)c(O)cc1F [187-10],IC50,[1],9100 nM
CC(C)C(C)/N=C1\SCC(Br)(C2CC2)N1/N=C/c1cc(O)c(O)cc1O (stereo not drawn) [187-19],IC50,[2],891 nM
Cc1cs/c(=N\C(C)C(C)C)n1/N=C/c1ccc(O)c(O)c1O (stereo not drawn) [187-20],IC50,[1],2100 nM
same,IC50,[2],1780 nM
Cc1cs/c(=N\C2CCCc3ccccc32)n1/N=C/c1cc(O)c(O)cc1O (stereo not drawn) [187-22],IC50,[1],144 nM
same,IC50,[2],1410 nM
Cc1cs/c(=N\C2CCCc3ccccc32)n1/N=C/c1ccc(O)c(O)c1O (stereo not drawn) [187-23],IC50,[1],1100 nM
same,IC50,[2],4360 nM
CC(C)C(C)/N=c1\scc(C(C)(C)C)n1/N=C/c1ccc(O)c(O)c1O (stereo not drawn) [187-27],IC50,[1],1500 nM
same,IC50,[2],4300 nM
CCc1s/c(=N\C2CCCCC2)n(/N=C/c2ccc(O)c(O)c2O)c1C(C)(C)C [187-37],IC50,[1],2800 nM
CC(C)C(C)/N=c1\scc(C2CC2)n1/N=C/c1cc(O)c(O)cc1O (stereo not drawn) [187-39],IC50,[1],1100 nM
same,IC50,[2],7300 nM
Cc1s/c(=N\C2CCCCC2)n(/N=C/c2cc(O)c(O)cc2O)c1C1CC1 [187-44],IC50,[1],117 nM
same,IC50,[2],587 nM
Cc1s/c(=N\C2CCN(C(=O)OC(C)(C)C)CC2)n(/N=C/c2ccc(O)c(O)c2O)c1C1CC1 [187-50],IC50,[1],735 nM
Cc1cs/c(=N\C2CC3CCC2C3)n1/N=C/c1cc(O)c(O)cc1O (stereo not drawn) [187-79],IC50,[1],272 nM
same,IC50,[2],937 nM
Cc1cs/c(=N\C2CCCCC2)n1/N=C/c1c(O)cc(O)cc1O [187-81],IC50,[1],31000 nM
Cc1cs/c(=N\c2ccccc2)n1/N=C/c1ccc(O)c(O)c1 [187-82],IC50,[1],8100 nM
same,IC50,[2],13300 nM
Oc1ccc(/C=N/n2c(C3CC3)cs/c2=N\c2ccccc2)cc1O [187-95],IC50,[1],3000 nM
COc1cc(/C=N/n2c(C(C)(C)C)cs/c2=N\C2CCCCC2)c(O)cc1O [190-4],IC50,[1],15000 nM
Oc1ccc(/C=N/n2c(-c3cccs3)cs/c2=N\c2ccccc2)c(O)c1O [190-18],IC50,[1],1700 nM
Oc1ccc(/C=N/n2c(C3CC3)cs/c2=N\c2ccccc2)c(O)c1O [190-20],IC50,[1],365 nM
"Cc1cs/c(=N\C2CCCCC2)n1/N=C/c1ccc(O)c(O)c1O [MIM1, 4-((E)-(((Z)-2-(cyclohexylimino)-4-methylthiazol-3(2H)-yl)imino)methyl)benzene-1,2,3-triol]",effect on viability / toxicity,[3],little to no toxicity; also recorded: no significant effect
same,caspase 3/7 activation,[4],no observed caspase 3/7 activation
same,IC50,[5],10600 nM
same,IC50,[6],4200 nM
same,IC50,[7],> 50000 nM
